Measured values from ChEMBL document CHEMBL1201862, “PubChem BioAssay data set” (2004).
Active and inactive are the calls of the source.

How the values were obtained:
Type in all cases: functional
[1] = target: Multidrug resistance protein CDR1 (Candida albicans, UniProt P43071); experiment: CaCDR1 efflux pump inhibitors in yeast, dose response, S. cerevisiae AD1-8u, singleplex, Cherry Pick1 hits (AID 588606)
[2] = target: Cell division cycle 7-related protein kinase (Homo sapiens, UniProt O00311);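 note: value obtained from a kinome-wide kinase panel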
[3] = target: Mitogen-activated protein kinase kinase kinase kinase 4 (Homo sapiens, UniProt O95819)
Chain of Mitogen-activated protein kinase kinase kinase kinase 4 (O95819 whole entry): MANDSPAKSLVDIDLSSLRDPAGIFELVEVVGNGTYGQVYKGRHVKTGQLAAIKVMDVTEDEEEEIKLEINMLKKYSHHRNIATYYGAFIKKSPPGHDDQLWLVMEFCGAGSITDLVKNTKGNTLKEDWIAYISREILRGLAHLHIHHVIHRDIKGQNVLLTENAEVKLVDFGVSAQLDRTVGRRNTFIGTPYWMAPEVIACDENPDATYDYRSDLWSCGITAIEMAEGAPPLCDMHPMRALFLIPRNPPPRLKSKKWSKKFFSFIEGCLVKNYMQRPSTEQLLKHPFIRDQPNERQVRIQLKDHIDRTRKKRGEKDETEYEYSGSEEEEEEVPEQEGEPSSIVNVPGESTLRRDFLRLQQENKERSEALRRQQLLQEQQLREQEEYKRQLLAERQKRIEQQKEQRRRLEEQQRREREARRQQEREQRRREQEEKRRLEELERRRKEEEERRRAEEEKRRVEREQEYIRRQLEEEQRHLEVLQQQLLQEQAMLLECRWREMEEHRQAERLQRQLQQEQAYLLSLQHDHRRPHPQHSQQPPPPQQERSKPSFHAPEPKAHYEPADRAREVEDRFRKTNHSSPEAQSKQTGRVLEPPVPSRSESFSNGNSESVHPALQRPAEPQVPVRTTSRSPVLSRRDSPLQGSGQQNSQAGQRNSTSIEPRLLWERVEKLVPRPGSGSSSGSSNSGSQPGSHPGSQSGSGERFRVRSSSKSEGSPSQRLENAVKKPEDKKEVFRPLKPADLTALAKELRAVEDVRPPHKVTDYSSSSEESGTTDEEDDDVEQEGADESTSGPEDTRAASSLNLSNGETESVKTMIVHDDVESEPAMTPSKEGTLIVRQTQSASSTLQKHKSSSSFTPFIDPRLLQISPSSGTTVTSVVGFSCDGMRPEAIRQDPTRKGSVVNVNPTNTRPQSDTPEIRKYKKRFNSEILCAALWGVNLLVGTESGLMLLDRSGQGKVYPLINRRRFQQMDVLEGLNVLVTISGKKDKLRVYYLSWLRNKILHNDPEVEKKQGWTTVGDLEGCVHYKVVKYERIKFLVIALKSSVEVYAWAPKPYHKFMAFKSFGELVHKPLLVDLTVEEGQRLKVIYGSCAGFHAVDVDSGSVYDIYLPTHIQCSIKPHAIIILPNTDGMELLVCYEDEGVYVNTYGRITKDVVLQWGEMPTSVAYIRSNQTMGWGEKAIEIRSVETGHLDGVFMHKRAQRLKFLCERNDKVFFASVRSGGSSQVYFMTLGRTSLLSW

[4] = target: Cyclin-dependent kinase 9 (Homo sapiens, UniProt P50750);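 note: value from the CDK9 entry of a kinome-spanning kinase panel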
[5] = target: Serine/threonine-protein kinase pim-1 (Homo sapiens, UniProt P11309)
Chain of Serine/threonine-protein kinase pim-1 (P11309 whole entry): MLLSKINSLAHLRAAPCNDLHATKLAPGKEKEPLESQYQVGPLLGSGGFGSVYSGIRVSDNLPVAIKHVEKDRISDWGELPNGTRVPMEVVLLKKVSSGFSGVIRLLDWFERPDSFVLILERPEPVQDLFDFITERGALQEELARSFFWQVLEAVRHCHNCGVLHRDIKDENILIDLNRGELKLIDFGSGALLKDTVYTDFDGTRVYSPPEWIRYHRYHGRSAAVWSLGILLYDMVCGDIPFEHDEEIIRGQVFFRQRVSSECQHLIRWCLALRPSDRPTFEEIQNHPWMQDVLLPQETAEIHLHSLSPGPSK

[6] = target: cAMP-dependent protein kinase catalytic subunit alpha (Homo sapiens, UniProt P17612)
[7] = target: Homeodomain-interacting protein kinase 2 (Homo sapiens, UniProt Q9H2X6);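 note: measured within a kinome-wide kinase profiling panel, HIPK2 being one panel member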
Chain of Homeodomain-interacting protein kinase 2 (Q9H2X6 whole entry): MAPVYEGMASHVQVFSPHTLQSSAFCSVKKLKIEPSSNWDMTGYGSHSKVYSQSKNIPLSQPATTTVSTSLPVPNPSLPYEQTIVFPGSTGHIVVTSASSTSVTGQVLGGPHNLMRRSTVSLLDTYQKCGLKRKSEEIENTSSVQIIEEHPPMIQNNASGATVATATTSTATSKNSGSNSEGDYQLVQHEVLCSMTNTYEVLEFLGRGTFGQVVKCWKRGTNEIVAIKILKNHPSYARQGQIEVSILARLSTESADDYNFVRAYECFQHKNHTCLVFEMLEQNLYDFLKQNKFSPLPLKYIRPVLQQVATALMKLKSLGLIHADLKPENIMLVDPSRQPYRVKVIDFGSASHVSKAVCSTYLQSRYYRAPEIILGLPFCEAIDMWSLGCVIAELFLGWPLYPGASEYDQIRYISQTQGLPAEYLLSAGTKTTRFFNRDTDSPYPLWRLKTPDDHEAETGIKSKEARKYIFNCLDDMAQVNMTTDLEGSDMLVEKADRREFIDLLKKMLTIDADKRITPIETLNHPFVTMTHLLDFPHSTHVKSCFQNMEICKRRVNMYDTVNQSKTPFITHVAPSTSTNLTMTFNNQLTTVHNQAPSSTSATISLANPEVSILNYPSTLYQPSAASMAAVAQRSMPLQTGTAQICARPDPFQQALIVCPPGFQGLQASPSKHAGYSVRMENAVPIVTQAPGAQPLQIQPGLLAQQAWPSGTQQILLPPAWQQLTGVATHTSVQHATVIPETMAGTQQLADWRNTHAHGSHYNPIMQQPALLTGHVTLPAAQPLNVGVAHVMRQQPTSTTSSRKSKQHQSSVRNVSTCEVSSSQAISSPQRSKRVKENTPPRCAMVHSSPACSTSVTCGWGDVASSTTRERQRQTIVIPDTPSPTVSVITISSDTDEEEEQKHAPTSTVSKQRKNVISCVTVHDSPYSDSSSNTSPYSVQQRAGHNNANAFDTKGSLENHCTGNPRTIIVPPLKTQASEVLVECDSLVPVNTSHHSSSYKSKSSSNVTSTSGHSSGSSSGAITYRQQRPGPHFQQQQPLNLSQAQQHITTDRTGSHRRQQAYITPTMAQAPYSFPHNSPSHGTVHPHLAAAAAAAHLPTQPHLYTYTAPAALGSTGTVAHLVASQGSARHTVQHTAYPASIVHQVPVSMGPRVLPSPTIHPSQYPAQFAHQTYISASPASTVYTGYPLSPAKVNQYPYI

[8] = target: T1, Interleukin-1 receptor-associated kinase 4 (Homo sapiens, UniProt Q9NWZ3)
T1 sequence (Q9NWZ3 whole entry): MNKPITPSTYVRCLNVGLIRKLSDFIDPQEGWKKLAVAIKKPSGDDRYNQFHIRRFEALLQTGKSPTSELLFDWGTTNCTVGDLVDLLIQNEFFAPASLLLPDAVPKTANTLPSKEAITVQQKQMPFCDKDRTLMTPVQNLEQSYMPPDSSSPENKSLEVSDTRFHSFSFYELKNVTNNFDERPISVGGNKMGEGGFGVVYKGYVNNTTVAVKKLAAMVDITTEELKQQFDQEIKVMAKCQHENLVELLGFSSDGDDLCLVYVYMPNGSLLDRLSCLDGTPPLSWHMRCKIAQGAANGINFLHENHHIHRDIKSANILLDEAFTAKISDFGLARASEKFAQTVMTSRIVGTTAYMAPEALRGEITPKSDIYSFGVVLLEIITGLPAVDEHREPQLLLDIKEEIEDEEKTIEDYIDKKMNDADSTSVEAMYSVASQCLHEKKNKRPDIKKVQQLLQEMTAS

[9] = target: Cyclin-dependent kinase 7 (Homo sapiens, UniProt P50613);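 note: value comes from a kinome-wide kinase profiling panel in which CDK7 is one member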
Chain of Cyclin-dependent kinase 7 (P50613 whole entry): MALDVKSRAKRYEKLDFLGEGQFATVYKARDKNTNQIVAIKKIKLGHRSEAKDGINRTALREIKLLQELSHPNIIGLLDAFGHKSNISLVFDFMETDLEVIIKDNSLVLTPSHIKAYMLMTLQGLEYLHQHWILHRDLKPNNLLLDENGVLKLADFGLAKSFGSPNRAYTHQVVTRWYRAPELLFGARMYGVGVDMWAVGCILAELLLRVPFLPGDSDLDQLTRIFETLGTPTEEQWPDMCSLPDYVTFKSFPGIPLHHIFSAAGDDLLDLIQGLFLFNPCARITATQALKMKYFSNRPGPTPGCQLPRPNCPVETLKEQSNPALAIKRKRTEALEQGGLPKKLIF

[10] = target: Dual specificity protein kinase CLK4 (Homo sapiens, UniProt Q9HAZ1)
[11] = target: Cyclin-dependent kinase 5 (Homo sapiens, UniProt Q00535);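 note: CDK5 measured as one member of a kinase profiling panel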
Chain of Cyclin-dependent kinase 5 (Q00535 whole entry): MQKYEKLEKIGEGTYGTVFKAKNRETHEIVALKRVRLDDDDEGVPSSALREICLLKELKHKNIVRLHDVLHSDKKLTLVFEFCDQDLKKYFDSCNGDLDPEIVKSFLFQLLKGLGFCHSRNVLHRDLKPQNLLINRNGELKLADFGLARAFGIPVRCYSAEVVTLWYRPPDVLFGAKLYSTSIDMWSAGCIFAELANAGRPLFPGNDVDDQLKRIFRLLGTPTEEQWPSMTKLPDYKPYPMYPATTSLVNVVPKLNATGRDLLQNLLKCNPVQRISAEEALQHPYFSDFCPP

[12] = target: Cyclin-dependent kinase 8 (Homo sapiens, UniProt P49336); experiment: Navigating the Kinome. Panel member name: CDK8

Chain of Multidrug resistance protein CDR1 (P43071 whole entry, looked up): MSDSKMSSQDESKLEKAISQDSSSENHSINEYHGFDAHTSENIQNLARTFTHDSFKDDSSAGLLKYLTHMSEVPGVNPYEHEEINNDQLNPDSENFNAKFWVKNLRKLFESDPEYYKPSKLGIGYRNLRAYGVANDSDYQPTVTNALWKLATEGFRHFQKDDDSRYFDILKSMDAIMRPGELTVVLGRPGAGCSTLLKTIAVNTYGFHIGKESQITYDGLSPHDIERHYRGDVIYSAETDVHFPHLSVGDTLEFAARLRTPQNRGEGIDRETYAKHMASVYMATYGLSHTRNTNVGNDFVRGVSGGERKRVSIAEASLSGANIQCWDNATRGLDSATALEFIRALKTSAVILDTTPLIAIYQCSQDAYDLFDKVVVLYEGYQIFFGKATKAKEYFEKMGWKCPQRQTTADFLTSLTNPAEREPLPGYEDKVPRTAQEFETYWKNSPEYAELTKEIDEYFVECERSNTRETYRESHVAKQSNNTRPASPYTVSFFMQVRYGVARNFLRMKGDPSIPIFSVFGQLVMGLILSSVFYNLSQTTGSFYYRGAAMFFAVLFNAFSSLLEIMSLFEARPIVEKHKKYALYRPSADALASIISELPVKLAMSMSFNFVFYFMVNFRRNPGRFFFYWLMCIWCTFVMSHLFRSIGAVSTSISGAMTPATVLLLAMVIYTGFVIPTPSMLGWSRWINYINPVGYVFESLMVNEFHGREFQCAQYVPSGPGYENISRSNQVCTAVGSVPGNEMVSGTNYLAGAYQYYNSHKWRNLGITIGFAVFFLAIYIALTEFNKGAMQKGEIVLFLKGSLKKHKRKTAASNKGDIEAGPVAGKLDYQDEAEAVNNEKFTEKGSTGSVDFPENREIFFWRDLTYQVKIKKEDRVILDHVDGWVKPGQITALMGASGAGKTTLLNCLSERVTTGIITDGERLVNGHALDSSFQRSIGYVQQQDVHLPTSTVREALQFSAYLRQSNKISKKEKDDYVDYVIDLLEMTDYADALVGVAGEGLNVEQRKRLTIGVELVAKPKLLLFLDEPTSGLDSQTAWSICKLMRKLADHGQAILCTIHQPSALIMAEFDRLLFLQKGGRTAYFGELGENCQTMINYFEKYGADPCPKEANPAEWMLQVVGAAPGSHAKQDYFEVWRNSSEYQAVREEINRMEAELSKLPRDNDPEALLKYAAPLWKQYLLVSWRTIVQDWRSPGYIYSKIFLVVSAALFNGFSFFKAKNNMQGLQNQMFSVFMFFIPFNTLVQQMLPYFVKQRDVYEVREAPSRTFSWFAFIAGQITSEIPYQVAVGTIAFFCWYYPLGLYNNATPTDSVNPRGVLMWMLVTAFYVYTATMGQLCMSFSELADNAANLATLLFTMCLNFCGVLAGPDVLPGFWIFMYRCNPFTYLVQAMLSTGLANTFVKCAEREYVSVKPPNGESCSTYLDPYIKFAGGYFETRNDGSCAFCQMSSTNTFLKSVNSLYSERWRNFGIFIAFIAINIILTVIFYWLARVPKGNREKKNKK

COc1cc2c(cc1NC(=O)CSc1nnc(Cc3cccs3)n1Cc1ccco1)oc1ccccc12
active: EC50 [1] 11 nM

NC(=O)c1ccccc1Nc1nc(Nc2ccccc2)ncc1C(F)(F)F
active: Ki [2] 5.01 nM | Ki [3] 25.1 nM | Ki [4] 39.8 nM | Ki [5] 2.51 µM | Ki [6] 200 nM | Ki [7] 3.98 nM | Ki [8] 39.8 nM | Ki [9] 5.01 nM

CC(C)(O)c1c(-c2ccccc2)n[nH]c(=O)c1N
active: Ki [10] 31.6 µM | Ki [11] 50.1 µM | Ki [12] 50.1 µM
